Drawing on US10875895B2, “Antibacterial cell-penetrating peptides” (Purdue Research Foundation, priority 2018, dated 2020), this text covers MIC for 3 molecules.

Values after ≈ are worked out from the molar mass of the structure shown. Read-outs that look alike come from different tables or passages of the source. Non-standard residues stand in square brackets, D forms with d. Residues, ends and D or L forms follow the SMILES beside them. *: point of attachment. X1 = O=C(O)c1cc(C(=O)*)ccc1-c1c2ccc(=O)cc-2oc2cc(O)ccc12; Pro(trans-4-guanidino) = N=C(N)N[C@H]1CN[C@H](C(=O)O)C1; Propyl(3-guanidino) = N=C(N)NCCC*; Hyp = O=C(O)[C@@H]1C[C@@H](O)CN1; Isobutyl = CC(C)C* Where only a bound is given, the exact number is not on record here.

One assay deals with S. aureus RN 4220. Kind of assay: MIC, broth microdilution (CLSI). The assay is classed as cell-based. Here is the method:
(§1) The minimum inhibitory concentration (MIC) of the peptides (in uM/ml) and control antibiotics (vancomycin and gentamicin) in μg/mL, were determined using the broth microdilution method according to the guidelines of the Clinical and Laboratory Standards Institute (CLSI) guidelines. See CLSI. 2007. Methods for dilution antimicrobial susceptibility tests for bacteria that grow aerobically; approved standard M7-A7. CLSI, Wayne, Pa.
(In broth dilution the organism is exposed to a series of concentrations in liquid medium.)

A further assay concerns S. flexneri 1a. Nature of the assay: MIC, broth microdilution (CLSI). The assay is classed as cell-based. The settings on record: enteric pathogens. Here is the method: as §1

Regarding gentamicin, the MIC in the assay with S. epidermidis NRS 101 (S. epidermidis NRS 101) amounted to 32 µM; in the assay on S. typhimurium LT2 (S. typhimurium LT2, enteric pathogens), 0.5 µM; in the assay on L. monocytogenes 191112 (L. monocytogenes 191112, enteric pathogens), 0.5 µM; in the assay on VRSA 5, 0.5 µM; against K. pneumoniae 1706 (K. pneumoniae 1706, ESKAPE pathogens), 2 µM; in the assay with S. aureus RN 4220 it was 0.5 µM. Also, the minimal inhibitory concentration (MIC) is 0.5 µM in the assay on S. flexneri 1a; 16 µM in the assay with A baumannii 19606 (A baumannii 19606); above 32 µM in the assay with E. faecium 700221 (E. faecium 700221, ESKAPE pathogens); 16 µM with P. aeruginosa 31040 (P. aeruginosa 31040); above 32 µM with P. aeruginosa 48982 (P. aeruginosa 48982); 1 µM against K. pneumonia NR 41928 (K. pneumonia NR 41928, ESKAPE pathogens). Further, the MIC against P. aeruginosa 31041 (P. aeruginosa 31041) is 32 µM; in the assay with VRSA 10, 0.5 µM; against A. baumannii 1605 (A. baumannii 1605, ESKAPE pathogens) it was above 32 µM; against K. pneumonia NR 41920 (K. pneumonia NR 41920, ESKAPE pathogens), 1 µM; against A. baumannii 1747 (A. baumannii 1747), 0.25 µM; with S. aureus NRS 384 (S. aureus NRS 384, ESKAPE pathogens) it was 0.5 µM. The MIC was above 32 µM with S. aureus NRS 383 (S. aureus NRS 383); 0.125 µM in the assay on S. aureus ATCC 6538 (S. aureus ATCC 6538); 2 µM with E. coli 21922 (E. coli 21922, enteric pathogens); 0.25 µM against P. aeruginosa 50573 (P. aeruginosa 50573, ESKAPE pathogens); 0.5 µM with E. cloacae 1134 (E. cloacae 1134, ESKAPE pathogens); 0.25 µM in the assay with S. enteritidis (S. enteritidis, enteric pathogens). The molecule also returned a minimum inhibitory concentration (MIC) against S. aureus NRS 382 (S. aureus NRS 382) of 0.5 µM.
`CC(C)CO[C@@H]1C[C@@H](C(=O)N2C[C@H](OCCCNC(=N)N)C[C@H]2C(=O)N2C[C@H](OCCCNC(=N)N)C[C@H]2C(=O)N2C[C@H](OCC(C)C)C[C@H]2C(=O)N2C[C@H](OCCCNC(=N)N)C[C@H]2C(=O)N2C[C@H](OCCCNC(=N)N)C[C@H]2C(=O)N2C[C@H](OCC(C)C)C[C@H]2C(=O)N2C[C@H](OCCCNC(=N)N)C[C@H]2C(=O)N2C[C@H](OCCCNC(=N)N)C[C@H]2C(=O)N2C[C@H](OCC(C)C)C[C@H]2C(=O)N2C[C@H](OCCCNC(=N)N)C[C@H]2C(=O)N2C[C@H](OCCCNC(=N)N)C[C@H]2C(=O)N2C[C@H](OCC(C)C)C[C@H]2C(N)=O)N(C(=O)CNC(=O)c2ccc(-c3c4ccc(=O)cc-4oc4cc(O)ccc34)c(C(=O)O)c2)C1` [Example P14-LRR] (X1-G[Hyp](Isobutyl)[Hyp](Propyl(3-guanidino))[Hyp](Propyl(3-guanidino))[Hyp](Isobutyl)[Hyp](Propyl(3-guanidino))[Hyp](Propyl(3-guanidino))[Hyp](Isobutyl)[Hyp](Propyl(3-guanidino))[Hyp](Propyl(3-guanidino))[Hyp](Isobutyl)[Hyp](Propyl(3-guanidino))[Hyp](Propyl(3-guanidino))[Hyp](Isobutyl)-NH2; N-terminus and C-terminus assumed): the minimum inhibitory concentration (MIC) is 2 µM (≈ 5.95 µg/mL) against S. epidermidis NRS 101 (NRS 101); 16 µM (≈ 47.6 µg/mL) in the assay with S. typhimurium LT2 (LT2); 8 µM (≈ 23.8 µg/mL) against L. monocytogenes 191112 (191112); above 32 µM in the assay on K. pneumoniae 1706 (1706); 2 µM (≈ 5.95 µg/mL) in the assay with A baumannii 19606 (19606); 2 µM (≈ 5.95 µg/mL) in the assay on E. faecium 700221 (700221). For the same molecule, the minimum inhibitory concentration (MIC) is 32 µM (≈ 95.2 µg/mL) against P. aeruginosa 31040 (31040); 32 µM (≈ 95.2 µg/mL) with P. aeruginosa 48982 (48982); above 32 µM with K. pneumonia NR 41928; 32 µM (≈ 95.2 µg/mL) in the assay on P. aeruginosa 31041 (31041); 1 µM (≈ 2.98 µg/mL) in the assay on A. baumannii 1605 (1605); 32 µM (≈ 95.2 µg/mL) against K. pneumonia NR 41920. The MIC in the assay with A. baumannii 1747 (1747) worked out at 1 µM (≈ 2.98 µg/mL); in the assay with S. aureus NRS 384 (NRS 384), 16 µM (≈ 47.6 µg/mL); in the assay on S. aureus NRS 383 (NRS 383), 32 µM (≈ 95.2 µg/mL); in the assay on S. aureus ATCC 6538 (ATCC 6538), 16 µM (≈ 47.6 µg/mL); against E. coli 21922 (21922), 4 µM (≈ 11.9 µg/mL); in the assay on P. aeruginosa 50573 (50573) it was 16 µM (≈ 47.6 µg/mL). Besides, the MIC in the assay with E. cloacae 1134 (1134) came out at 32 µM (≈ 95.2 µg/mL); against S. enteritidis, 4 µM (≈ 11.9 µg/mL); in the assay with S. aureus NRS 382 (NRS 382) it was 32 µM (≈ 95.2 µg/mL).
Regarding `CC(C)CO[C@@H]1C[C@@H](C(=O)N2C[C@H](NC(=N)N)C[C@H]2C(=O)N2C[C@H](NC(=N)N)C[C@H]2C(=O)N2C[C@H](OCC(C)C)C[C@H]2C(=O)N2C[C@H](NC(=N)N)C[C@H]2C(=O)N2C[C@H](NC(=N)N)C[C@H]2C(=O)N2C[C@H](OCC(C)C)C[C@H]2C(=O)N2C[C@H](NC(=N)N)C[C@H]2C(=O)N2C[C@H](NC(=N)N)C[C@H]2C(=O)N2C[C@H](OCC(C)C)C[C@H]2C(=O)N2C[C@H](NC(=N)N)C[C@H]2C(=O)N2C[C@H](NC(=N)N)C[C@H]2C(=O)N2C[C@H](OCC(C)C)C[C@H]2C(N)=O)N(C(=O)CNC(=O)c2ccc(-c3c4ccc(=O)cc-4oc4cc(O)ccc34)c(C(=O)O)c2)C1` [Example 1] (X1-G[Hyp](Isobutyl)[Pro(trans-4-guanidino)][Pro(trans-4-guanidino)][Hyp](Isobutyl)[Pro(trans-4-guanidino)][Pro(trans-4-guanidino)][Hyp](Isobutyl)[Pro(trans-4-guanidino)][Pro(trans-4-guanidino)][Hyp](Isobutyl)[Pro(trans-4-guanidino)][Pro(trans-4-guanidino)][Hyp](Isobutyl)-NH2), the MIC against S. epidermidis NRS 101 (NRS 101) came to 1 µM (≈ 2.51 µg/mL); in the assay with S. typhimurium LT2 (LT2), 1 µM (≈ 2.51 µg/mL); against L. monocytogenes 191112 (191112) it was 2 µM (≈ 5.02 µg/mL); in the assay on VRSA 5, 2 µM (≈ 5.02 µg/mL); in the assay with K. pneumoniae 1706 (1706) it was 8 µM (≈ 20.1 µg/mL); with S. aureus RN 4220, 2 µM (≈ 5.02 µg/mL). Also, the minimal inhibitory concentration (MIC) against S. flexneri 1a was 1 µM (≈ 2.51 µg/mL); against A baumannii 19606 (19606), 1 µM (≈ 2.51 µg/mL); with E. faecium 700221 (700221), 1 µM (≈ 2.51 µg/mL); in the assay on P. aeruginosa 31040 (31040), 2 µM (≈ 5.02 µg/mL); in the assay with P. aeruginosa 48982 (48982), 4 µM (≈ 10 µg/mL); against K. pneumonia NR 41928, 1 µM (≈ 2.51 µg/mL). Further, the MIC is 2 µM (≈ 5.02 µg/mL) with P. aeruginosa 31041 (31041); 2 µM (≈ 5.02 µg/mL) against VRSA 10; 0.5 µM (≈ 1.26 µg/mL) with A. baumannii 1605 (1605); 4 µM (≈ 10 µg/mL) with K. pneumonia NR 41920; 0.5 µM (≈ 1.26 µg/mL) in the assay on A. baumannii 1747 (1747); 2 µM (≈ 5.02 µg/mL) in the assay with S. aureus NRS 384 (NRS 384). Moreover, the MIC in the assay with S. aureus NRS 383 (NRS 383) came to 2 µM (≈ 5.02 µg/mL); against S. aureus ATCC 6538 (ATCC 6538) it was 1 µM (≈ 2.51 µg/mL); with E. coli 21922 (21922), 1 µM (≈ 2.51 µg/mL); against P. aeruginosa 50573 (50573), 2 µM (≈ 5.02 µg/mL); with E. cloacae 1134 (1134) it was 2 µM (≈ 5.02 µg/mL); in the assay on S. enteritidis it was 1 µM (≈ 2.51 µg/mL). In the assay with S. aureus NRS 382 (NRS 382), this molecule had an MIC of 2 µM (≈ 5.02 µg/mL).

What is called MIC is the least concentration at which growth counts as inhibited. Low values mean inhibition by little substance, high ones a need for much substance.
